From patent US11752111B2, “Use of cannabidivarin in the treatment of autism spectrum disorder, associated disorders and schizophrenia” (GW Research Limited, priority 2016, dated 2023) come the findings set out here.

What all share (type): in vivo, mouse
One data set deals with MeCP2 KO mice. In words: Body weight gain in Rett syndrome model. As for the experimental part:
CBDV was administered daily at the dose of 2, 20 and 200 mg/kg i.p. starting from PND 28 and the following signs were scored every other day: hindlimb clasping (indication of motor imbalance), tremor, gait (measure of coordination), breathing, mobility and general condition.
The CBDV was dissolved in ethanol, cremophor and saline (1:1:18).
Starting from PND 28, mice received a daily intraperitoneal injection of CBDV (or vehicle) at the dose of 2, 20 and 200 mg/kg. Animals were then scored every other day to evaluate the effect of CBDV treatment on motor symptoms (hindlimb clasping, gait, mobility) as well as neurological signs and general conditions (breathing abnormalities, tremors and general condition) present in MeCP2 knockout (KO) mice.

A further data set relates to WT mice. In words: Audiogenic seizure susceptibility, WT mice. The settings on record: WT PND21. The protocol:
This trait was evaluated in PND21 mice after acute administration of the compounds or its vehicle, 30 min before starting the procedure. To measure audiogenic seizure sensitivity mice were placed individually into a novel environment, a glass cylinder (40 cm high, 16 cm diameter) and allowed to explore for 1 min. Next, a bell (100 dB) was rung for 30 sec and seizure activity scored according to the following scale: no response, 0; wild running, 1; clonic seizure, 2; tonic seizure, 3; status epilepticus/respiratory arrest/death, 4.
On postnatal day 21 (PND21) WT and Fmr1 KO mice were injected with CBDV (2, 10, 20 or 100 mg/kg) or vehicle, 30 min before exposure to a bell ring (100 dB). Mice exposed to this noise for 30 sec ceased from their normal exploratory behaviour and reacted with gradually to wild-running, clonic seizure, tonic seizure or death. The maximum response was annotated for each mouse as detailed in Table 2 below. A score was calculated according to the severity of the symptoms as explained in the Methods section.

The subject of another data set is Fmr1 KO mice. The experiment in a line: Novel object recognition task in Fragile X model. The protocol:
Fmr1 KO mice and wild type mice were obtained and housed four per cage in a temperature of 21° C.±1° C. and humidity of 55%±10% controlled environment. Food and water were available ad libitum. All experiments were performed during the light phase of a 12 hour light/dark cycle (08:00 to 20:00). Animals were handled for one week before the start of experiments. All behavioural tests were performed by researchers blind to the different experimental groups.
On day one mice were habituated for 10 minutes to the empty V-maze in which the task was to be performed. On the second day the mice went back to the maze for 10 minutes which contained two identical objects at the end of each corridor in the V-maze.
The following day the mice were placed again in the same maze for a further 10 minutes but one of the familiar objects was replaced for a novel object. The total time spent exploring the novel and familiar object was recorded. A discrimination index was calculated as the difference between the time spent exploring the novel and familiar object divided by the total time exploring the two objects. A high discrimination index (0.3-0.5) is considered to reflect memory retention for the familiar object.
Adult mice (10-15 weeks old) were treated either acutely with one dose of CBDV on […] or were treated once daily with CBDV for 7 consecutive days. Mice were evaluated in the novel object recognition task after the first and sixth day of CBDV administration. Doses of CBDV used were 2, 10, 20, 100 and 200 mg/kg.

The subject of another data set is Ube3am-/p+ (AS) mice. In words: Tail suspension test in Angelman syndrome model. As to conditions: CBDV 20 mg/kg i.p.; AS mice vs AS vehicle. The protocol: Heterozygous mice with maternal deficiency of Ube3A (Ube3am−/p+) and wild type (Ube3am+/p+) were purchased from The Jackson Laboratory (Jackson code: B6.129S7-Ube3a tm1Alb/J) and maintained in a C57BL/6 background.
Drugs were dissolved in 1:1:18 ethanol:cremophor:0.9% saline, for intraperitoneal (i.p.) administration. Drug treatment was performed daily for 35 days. CBDV was administered at 20 mg/kg.
Tail suspension: The tail suspension test assesses depressive-like behaviour in mice. Mice were individually suspended by the tail on a horizontal bar (50 cm from floor) using adhesive tape placed approximately 4 cm from the tip of the tail. The duration of immobility was recorded in seconds over a period of 6 minutes by a time recorder. Immobility time was defined as the absence of escape-oriented behaviour.

For the compound `C=C(C)[C@@H]1CCC(C)=C[C@H]1c1c(O)cc(CCC)cc1O` [CBDV, Cannabidivarin], in the data set on MeCP2 KO mice (2, 20 and 200 mg/kg i.p. daily PND 28-66, MeCP2 KO mice), the “body weight gain (FIG. 4A)” value is “partially prevent the reduction in body weight”. Further, the “body weight, area under the curve (FIG. 4B)” value in the data set on MeCP2 KO mice (KO mice) is “significantly rescued body weight”; with MeCP2 KO mice (WT controls) it was “without affecting body weight”. In addition, the “maximum response: Clonic seizure (number of mice)” value in the data set with WT mice (CBDV 2 mg/kg acute, n = 6) is 0; with WT mice (CBDV 10 mg/kg acute, n = 5), 0; in the data set on WT mice (CBDV 20 mg/kg acute, n = 6) it was 0; in the data set on WT mice (CBDV 100 mg/kg acute, n = 6) it was 0. Further, the “maximum response: Death (number of mice)” value is 0 in the data set with WT mice (CBDV 2 mg/kg acute, n = 6); 0 in the data set on WT mice (CBDV 10 mg/kg acute, n = 5); 0 in the data set on WT mice (CBDV 20 mg/kg acute, n = 6); 0 in the data set on WT mice (CBDV 100 mg/kg acute, n = 6). The “maximum response: Tonic seizure (number of mice)” value in the data set on WT mice (CBDV 2 mg/kg acute, n = 6) came out at 0; with WT mice (CBDV 10 mg/kg acute, n = 5), 0; with WT mice (CBDV 20 mg/kg acute, n = 6), 0; with WT mice (CBDV 100 mg/kg acute, n = 6), 0. Besides, the “maximum response: Wild running (number of mice)” value with WT mice (CBDV 2 mg/kg acute, n = 6) amounted to 0; in the data set with WT mice (CBDV 10 mg/kg acute, n = 5), 0; with WT mice (CBDV 20 mg/kg acute, n = 6), 1; with WT mice (CBDV 100 mg/kg acute, n = 6), 0. Moreover, the “discrimination index (FIG. 3A)” value in the data set with Fmr1 KO mice is “no effect”. Further, in the data set with Fmr1 KO mice (acute treatment, 2 mg/kg, knockout mice), the “increase of discrimination index over vehicle treated mice (FIG. 3A)” value was “not significant”. The “discrimination index vs vehicle treated knockout mice (FIG. 3B)” value in the data set with Fmr1 KO mice (chronic treatment once daily for 7 days, 20 and 100 mg/kg, knockout mice) was “statistically significant increase”. In the data set with Ube3am-/p+ (AS) mice, the “duration of immobility time, tail suspension (FIG. 14)” value is given as “significantly reduced the duration of immobility time”.
